Measured values published in PubChem BioAssay (NCI).
Where “and” joins values, the source holds several entries; their conditions need not be identical. Equal values may be shown once.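 Interpolation was linear, between the two tested concentrations surrounding the appropriate level; five concentrations were tested over 48 hours in 96-well plates. GI50 marks 50% less growth. TGI denotes the concentration required for complete inhibition of growth.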 Numbered stars: 1 amine (or outer) side, 2 acyl side, 3 side chain; on linkers, the order of the positions; unused ones are H or OH. Bridge positions count the residues as written; N and C are the ends. Square brackets hold non-standard residues; d marks the D form. Peptide text beside a SMILES is read from it. I, II: the chains in the order shown. Actinocin(1to9) = Cc1c2oc3c(C)ccc(C(=O)[*:2])c3nc-2c(C(=O)[*:1])c(N)c1=O; NMeY = CN[CH](Cc1ccc(O)cc1)C(=O)O; Sar = CNCC(=O)O

Columns and labels:
Assay in all cases: inhibition of tumour cell growth, NCI panel, 48 h
MALME-3M melanoma = test system: MALME-3M melanoma
K-562 leukemia = test system: K-562 leukemia
IGROV1 ovarian = test system: IGROV1 ovarian
HT29 colon = test system: HT29 colon
M14 melanoma = test system: M14 melanoma
U251 CNS = test system: U251 CNS
SW-620 colon = test system: SW-620 colon
SNB-19 CNS = test system: SNB-19 CNS
SN12C renal = test system: SN12C renal
MDA-MB-231 breast = test system: MDA-MB-231 breast

Row | SMILES | GI50 (MALME-3M melanoma) | TGI (MALME-3M melanoma) | GI50 (K-562 leukemia) | TGI (K-562 leukemia) | GI50 (IGROV1 ovarian) | TGI (IGROV1 ovarian) | GI50 (HT29 colon) | TGI (HT29 colon) | GI50 (M14 melanoma) | TGI (M14 melanoma) | GI50 (U251 CNS) | TGI (U251 CNS) | GI50 (SW-620 colon) | TGI (SW-620 colon) | GI50 (SNB-19 CNS) | TGI (SNB-19 CNS) | GI50 (SN12C renal) | TGI (SN12C renal) | GI50 (MDA-MB-231 breast) | TGI (MDA-MB-231 breast)
1 | C[CH2][Sn]([CH2]C)([O]C(=O)c1ccc(F)cc1)[O]C(=O)c1ccc(F)cc1 | 16.6 µM | 34.2 µM | 16.7 µM | 64.7 µM | > 80.5 µM | > 100 µM | 63.8 µM | > 100 µM | 17.5 µM | 33.4 µM | 19 µM | 42 µM | 22 µM | 46.7 µM | 16.7 µM | 30.5 µM | 36 µM | > 100 µM | – | –
2 | O=C1N=C(Nc2nc(-c3csc(NC4=NC(=O)/C(=C\c5ccccc5)S4)n3)cs2)S/C1=C/c1ccccc1 | – | – | 6.28 µM | 48.9 µM | 36.6 µM | > 50 µM | 25.7 µM | > 50 µM | 4.63 µM | 32.3 µM | 6.34 µM | > 50 µM | 31.7 µM | > 50 µM | 49.1 µM | > 50 µM | 5.64 µM | 20.6 µM | 4.78 µM | 18.8 µM
3 | CCC[CH2][Sn]1([CH2]CCC)[S]CC[N]1S(=O)(=O)c1ccc(C)cc1 | 1.09 µM | 2.33 µM | 0.341 µM | 1.97 µM | 1.7 µM | 3.27 µM | 2.04 µM | 3.73 µM | 1.64 µM | 3.12 µM | 0.885 µM | 2.1 µM | – | – | 1.45 µM | 2.75 µM | – | – | – | –
4 | O/N=C/c1ccc(O)c(O)c1 | – | > 100 µM | – | > 100 µM | – | > 100 µM | – | > 100 µM | – | > 100 µM | – | > 100 µM | – | 35.3 µM | – | > 100 µM | – | > 100 µM | – | –
5 | COC(=O)CC[C@]12C[C@]13CC[C@]1(C)C4C(C)C[C@]5(CC(C)C(=O)O5)OC4CC1(C)C3CCC2C(C)(C)O (some centres not stated) | – | > 100 µM | – | > 100 µM | – | > 100 µM | – | > 100 µM | – | > 100 µM | – | > 100 µM | – | > 100 µM | – | > 100 µM | – | > 100 µM | – | –
6 | O=C1NC(c2ccccc2)C2(C(=O)O)CN(C3CC3)c3cc(N4CCNCC4)c(F)cc3C2N1 (configuration not stated) | > 100 µM | > 100 µM | > 100 µM | > 100 µM | > 100 µM | > 100 µM | > 100 µM | > 100 µM | – | – | > 100 µM | > 100 µM | > 100 µM | > 100 µM | > 100 µM | > 100 µM | > 100 µM | > 100 µM | > 100 µM | > 100 µM
7 | COc1cc2cnc3c4cc(OCc5ccccc5)ccc4ccc3c2cc1OC | – | > 100 µM | – | > 100 µM | – | > 100 µM | – | > 100 µM | – | > 100 µM | – | > 100 µM | – | > 100 µM | – | > 100 µM | – | > 100 µM | – | –
8 | C1=CCCC=CCC1.C[PH+](C)C.C[PH+](C)C.C[PH+](C)C.[Cl-].[Ir] | 22.9 µM | 61.5 µM | 26.6 µM | > 100 µM | 36.3 µM | > 100 µM | 47.6 µM | > 100 µM | > 100 µM | > 100 µM | 46.2 µM | > 100 µM | 36.4 µM | > 100 µM | – | – | 82.6 µM | > 100 µM | – | –
9 | C=C1C(OC(C)=O)CC(OC(C)=O)C2(C)C(OC(C)=O)C(OC(C)=O)C3=C(C)C(OC(=O)/C=C/c4ccccc4)CC(C(OC(C)=O)C12)C3(C)C (configuration not stated) | – | > 100 µM | – | > 100 µM | – | > 100 µM | – | > 100 µM | – | > 100 µM | – | > 100 µM | – | > 100 µM | – | > 100 µM | – | > 100 µM | – | –
10 | O=c1c2cc3ccccc3n2c(=O)c2cc3ccccc3n12 | – | > 100 µM | – | > 100 µM | – | – | – | > 100 µM | – | > 100 µM | – | > 100 µM | – | > 100 µM | – | > 100 µM | – | > 100 µM | – | –
11 | COC(=O)N/N=C(\C)CC(=O)Nc1ccc(Cl)cc1 | – | > 100 µM | – | > 100 µM | – | > 100 µM | – | > 100 µM | – | > 100 µM | – | > 100 µM | – | > 100 µM | – | – | – | – | – | –
12 | CC1c2[nH]c3ccccc3c2CCN1O (configuration not stated) | – | > 100 µM | – | > 100 µM | – | > 100 µM | – | > 100 µM | – | > 100 µM | – | > 100 µM | – | > 100 µM | – | > 100 µM | – | > 100 µM | – | –
13 | NC(=O)c1ccc(Cl)c([N+](=O)[O-])c1 | – | > 100 µM | – | > 100 µM | – | > 100 µM | – | > 100 µM | – | > 100 µM | – | > 100 µM | – | > 100 µM | – | > 100 µM | – | > 100 µM | – | –
14 | COc1ccc(CC2C(=O)OC(C)C(NC(=O)c3c4nc5c(C(=O)NC6C(=O)NC(C(C)C)C(=O)N7CCCC7C(=O)N(C)CC(=O)N(C)C(Cc7ccc(OC)cc7)C(=O)OC6C)ccc(C)c5oc-4c(C)c(=O)c3N)C(=O)NC(C(C)C)C(=O)N3CCCC3C(=O)N(C)CC(=O)N2C)cc1 (configuration not stated) (I: TVP[Sar][NMeY](Me) / II: TVP[Sar][NMeY](Me); ester I:1-I:C, II:1-II:C; linker I:N-II:N via Actinocin(1to9); configuration not given here) | – | – | < 0.01 µM and 0.0039 µM | < 0.01 µM | < 0.01 µM and 0.00327 µM | – | < 0.01 µM and 0.00275 µM | – | < 0.01 µM and 0.0665 µM | – | 0.00189 µM | > 1 µM | – | – | – | 1.55 µM and > 0.804 µM | – | > 1 µM | – | –
15 | CO[C@@]1(c2ccccc2)O[C@H]2OCCC2[C@H]1c1ccc(Cl)cc1 (some centres not stated) | – | 84.8 µM | – | > 100 µM | – | > 100 µM | – | 50.6 µM | – | > 100 µM | – | 94 µM | – | > 100 µM | – | > 100 µM | – | > 100 µM | – | –
16 | C=C1C[C@@H]2C[C@@H](C)CC(O)[C@]2(CCCN)C1O (some centres not stated) | – | > 100 µM | – | > 100 µM | – | > 100 µM | – | > 100 µM | – | > 100 µM | – | > 100 µM | – | > 100 µM | – | > 100 µM | – | > 100 µM | – | –
17 | COc1ccc(OC(C)C(=O)O)c2c(=O)ccccc12 (configuration not stated) | – | > 100 µM | – | > 100 µM | – | > 100 µM | – | > 100 µM | – | > 100 µM | – | > 100 µM | – | > 100 µM | – | > 100 µM | – | > 100 µM | – | –
18 | O=C1NC2C(O)CCCCC2C12CCCCC2 (configuration not stated) | – | > 100 µM | – | > 100 µM | – | > 100 µM | – | > 100 µM | – | > 100 µM | – | > 100 µM | – | > 100 µM | – | > 100 µM | – | > 100 µM | – | –
19 | CC(=O)NN1C(=O)C(Cc2ccccc2)c2ccccc21 (configuration not stated) | – | > 100 µM | – | > 100 µM | – | > 100 µM | – | > 100 µM | – | > 100 µM | – | > 100 µM | – | > 100 µM | – | > 100 µM | – | > 100 µM | – | –
